These results are taken from PubChem BioAssay (NCI).

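The compound was tested at five concentrations on cells cultured in 96-well plates, with a 48-hour exposure period. GI50: concentration for 50% inhibition of growth. TGI marks complete inhibition of growth.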 Where only a bound is given, the exact number is not on record here.

Test systems include K-562 leukemia; SK-OV-3 ovarian; SR leukemia; HCT-116 colon; M14 melanoma; HL-60(TB) leukemia; SK-MEL-5 melanoma; NCI-H522 lung; HCC-2998 colon; OVCAR-5 ovarian.
Assay in all cases: growth of human tumour cells (NCI), 48 h

As for `COc1ccc(-c2nsc3c2NC(=O)CC3c2cccc(Cl)c2)cc1` (stereo not given), the GI50 in the test on K-562 leukemia was 0.399 µM; with SK-OV-3 ovarian, 3.31 µM; with SR leukemia, 0.519 µM; with HCT-116 colon, 0.83 µM; in the test with M14 melanoma it was 1.46 µM; in the test with HL-60(TB) leukemia, 2.28 µM. Further, the GI50 is 1.38 µM in the test with SK-MEL-5 melanoma, 0.766 µM in the test with NCI-H522 lung, 11.5 µM in the test with HCC-2998 colon and 5.3 µM in the test on OVCAR-5 ovarian. In addition, the TGI in the test on K-562 leukemia was > 100 µM; with SK-OV-3 ovarian, > 100 µM; with SR leukemia it was > 100 µM; in the test with HCT-116 colon it was > 100 µM; with M14 melanoma it was > 100 µM; with HL-60(TB) leukemia, > 27.6 µM. Also, the TGI in the test with SK-MEL-5 melanoma is 51.6 µM; with NCI-H522 lung, 5.99 µM; with HCC-2998 colon it was > 100 µM; with OVCAR-5 ovarian, > 100 µM.
As for `CC1=C(C#N)C(/C=C(\Cl)c2ccc(F)cc2)C(C#N)=C(C)N1`, the GI50 in the test on K-562 leukemia was > 100 µM; in the test on SK-OV-3 ovarian, > 100 µM; with SR leukemia, > 100 µM; with HCT-116 colon it was > 100 µM; with M14 melanoma, > 100 µM; in the test on HL-60(TB) leukemia, 74 µM. Also, the GI50 with SK-MEL-5 melanoma, with NCI-H522 lung, with HCC-2998 colon and in the test on OVCAR-5 ovarian was > 100 µM each time. In addition, the TGI in the test with K-562 leukemia, in the test on SK-OV-3 ovarian, in the test with SR leukemia, with HCT-116 colon, with M14 melanoma and in the test on HL-60(TB) leukemia was > 100 µM in each case. For the same molecule, the TGI in the test on SK-MEL-5 melanoma, with NCI-H522 lung, in the test with HCC-2998 colon and in the test on OVCAR-5 ovarian was > 100 µM throughout.
For `CC[C@@H](O)C[C@H]1CCC[C@@]2(C[C@@H]3OC(=O)/C=C/[C@@](C)(O)[C@@H](O)[C@H](C)[C@@H](O)[C@H](OC4CCC(N(C)C)C(C)O4)[C@@H](O)[C@](C)(O)CCCCC/C=C/[C@@H]4CC(C)(C)O[C@@]4(O)C[C@H](O2)[C@H]3C)O1` (stereo not given in full), the TGI was 21.5 µM in the test with K-562 leukemia; 29.1 µM in the test with SK-OV-3 ovarian; 9.42 µM with SR leukemia; 26.2 µM in the test on HCT-116 colon; 7.48 µM in the test with M14 melanoma; > 39.8 µM in the test with HL-60(TB) leukemia. Further, the TGI came out at 2.04 µM in the test with SK-MEL-5 melanoma, 12.3 µM with NCI-H522 lung, 17.5 µM with HCC-2998 colon and 28.1 µM in the test with OVCAR-5 ovarian.
`Cc1noc(C)c1-c1cnc2c(-c3ccc(C(=O)O)cc3)cn([C@@H](C)c3ccccn3)c2c1`: the GI50 in the test with K-562 leukemia was 0.964 µM; in the test with SK-OV-3 ovarian it was 0.635 µM; in the test on SR leukemia, 0.838 µM; in the test with HCT-116 colon it was 1.14 µM; with M14 melanoma, 0.629 µM; with HL-60(TB) leukemia, 0.253 µM. Further, the GI50 in the test on SK-MEL-5 melanoma was 0.644 µM; in the test on NCI-H522 lung, 0.231 µM; in the test on HCC-2998 colon, 0.966 µM; with OVCAR-5 ovarian, 4.22 µM. Further, the TGI is > 100 µM in the test with K-562 leukemia; 32.5 µM in the test with SK-OV-3 ovarian; > 100 µM in the test with SR leukemia; > 100 µM in the test with HCT-116 colon; > 100 µM in the test on M14 melanoma; > 100 µM in the test with HL-60(TB) leukemia. In addition, the TGI in the test on SK-MEL-5 melanoma is 4.07 µM; in the test with NCI-H522 lung, > 49.7 µM; with HCC-2998 colon, 10.9 µM; with OVCAR-5 ovarian, > 100 µM.
In the case of `Cc1c(C)c2c(c(C)c1OCC(=O)O)CC[C@@](C)(CCC[C@@H](C)CCC[C@@H](C)CCCC(C)C)O2`, the GI50 is 62.5 µM in the test on K-562 leukemia; 76.8 µM in the test on SK-OV-3 ovarian; 50.4 µM in the test with SR leukemia; 33.2 µM with HCT-116 colon; 41.1 µM in the test with M14 melanoma; 77.2 µM in the test on HL-60(TB) leukemia. Also, the GI50 was 58 µM in the test on SK-MEL-5 melanoma, 64.1 µM in the test with NCI-H522 lung, 102 µM in the test with HCC-2998 colon and 86.3 µM in the test on OVCAR-5 ovarian. Also, the TGI is 287 µM in the test on K-562 leukemia; 148 µM in the test with SK-OV-3 ovarian; 500 µM in the test with SR leukemia; 108 µM with HCT-116 colon; 114 µM in the test with M14 melanoma; 156 µM in the test with HL-60(TB) leukemia. Moreover, the TGI in the test on SK-MEL-5 melanoma came to 122 µM; in the test on NCI-H522 lung, 154 µM; in the test with HCC-2998 colon, 224 µM; in the test on OVCAR-5 ovarian it was 155 µM.
As to `O=C(/C=C\n1cnc(-c2cc(C(F)(F)F)cc(C(F)(F)F)c2)n1)N1CC(F)(F)C1`, the GI50 was 0.43 µM in the test on K-562 leukemia; 1.08 µM with SK-OV-3 ovarian; 0.151 µM with SR leukemia; 0.4 µM in the test with HCT-116 colon; 1.36 µM in the test on M14 melanoma; 0.399 µM in the test with HL-60(TB) leukemia. For the same molecule, the GI50 with SK-MEL-5 melanoma was 0.644 µM; with NCI-H522 lung, 0.423 µM; in the test on HCC-2998 colon, 0.729 µM; in the test on OVCAR-5 ovarian, 0.671 µM. Further, the TGI was > 25 µM in the test with K-562 leukemia; > 25 µM in the test with SK-OV-3 ovarian; > 25 µM in the test with SR leukemia; 4.45 µM in the test with HCT-116 colon; 6.57 µM in the test on M14 melanoma; > 17.1 µM in the test on HL-60(TB) leukemia. In addition, the TGI was 4.08 µM with SK-MEL-5 melanoma, 4.47 µM in the test with NCI-H522 lung, 4.42 µM in the test with HCC-2998 colon and > 25 µM in the test on OVCAR-5 ovarian.
Take `COC(=O)N/N=C(\C)C(CN(C)C)C(c1ccccc1)c1c(O)c2ccccc2oc1=O` (stereo not given): the TGI in the test with K-562 leukemia, in the test with SK-OV-3 ovarian, with SR leukemia, in the test on HCT-116 colon, with M14 melanoma and in the test on HL-60(TB) leukemia was > 100 µM throughout. The TGI with SK-MEL-5 melanoma, with NCI-H522 lung, with HCC-2998 colon and with OVCAR-5 ovarian was > 100 µM each time.
As to `CN1CCN(CCCOc2cccc3nc(Nc4ccc(F)c(F)c4)ccc23)CC1`, the GI50 in the test with K-562 leukemia is 0.662 µM; with SK-OV-3 ovarian, 4.39 µM; with SR leukemia it was 0.87 µM; in the test with HCT-116 colon it was 3.8 µM; with M14 melanoma it was 0.68 µM; in the test with HL-60(TB) leukemia it was 5.18 µM. For the same molecule, the GI50 with SK-MEL-5 melanoma was 4.44 µM; in the test with NCI-H522 lung it was 1.01 µM; in the test with HCC-2998 colon it was 4.56 µM; in the test with OVCAR-5 ovarian, 4.71 µM. The TGI in the test on K-562 leukemia turned out to be 1.49 µM; in the test on SK-OV-3 ovarian, 8.87 µM; in the test on SR leukemia, 4.07 µM; with HCT-116 colon it was 7.87 µM; with M14 melanoma, 1.49 µM; in the test on HL-60(TB) leukemia, 11 µM. In addition, the TGI in the test on SK-MEL-5 melanoma came out at 8.69 µM; with NCI-H522 lung, 3.69 µM; with HCC-2998 colon it was 9.08 µM; with OVCAR-5 ovarian it was 9.73 µM.
